According to US20070203098A1, “Pten Inhibitors” (priority 2004, published 2007):
“And” between values parts separate entries of the source, which are not always exact repeats. Identical values can stand only once. Like-named read-outs stand apart in the source and are kept apart here. Marks after values point to notes of the source that are not given here.

Assays:
[1] = test system: human brain endothelial cells (HBEC); experiment: MTT Assay for Determining Toxicity, HBEC; assay type: cell-based; conditions: Endothelial cell, read-out: Viability IC50 HBEC
PTEN [2] = target: T1, PTEN (Homo sapiens, UniProt P60484); experiment: PTEN Inhibition Assay: IC50 Determinations; assay type: biochemical
T1 sequence (P60484 whole entry, species assumed): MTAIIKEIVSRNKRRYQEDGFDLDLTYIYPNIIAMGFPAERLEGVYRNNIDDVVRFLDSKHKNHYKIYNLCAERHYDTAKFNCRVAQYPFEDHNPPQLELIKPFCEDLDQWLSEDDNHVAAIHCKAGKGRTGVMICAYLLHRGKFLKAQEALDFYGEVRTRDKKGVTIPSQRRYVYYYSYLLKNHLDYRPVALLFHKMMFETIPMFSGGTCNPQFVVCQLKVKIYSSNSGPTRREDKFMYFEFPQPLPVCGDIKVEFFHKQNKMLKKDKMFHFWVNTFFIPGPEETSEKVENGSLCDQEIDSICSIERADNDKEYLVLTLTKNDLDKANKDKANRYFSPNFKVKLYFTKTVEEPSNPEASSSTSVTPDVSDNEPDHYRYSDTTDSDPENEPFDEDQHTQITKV

[3] = test system: human non-small cell lung cancer cells (H1299); experiment: MTT Assay for Determining Toxicity, H1299; assay type: cell-based; conditions: read-out: Viability IC50 H1299
[4] = test system: human prostate cancer cells (PC-3); experiment: MTT Assay for Determining Toxicity, PC-3; assay type: cell-based; conditions: read-out: Viability IC50 PC-3
PTP1B = target: T2, PTP1B (Homo sapiens, UniProt P18031); experiment: PTP1B Inhibition Assay: IC50 Determinations; assay type: biochemical
T2 sequence (P18031 1-435): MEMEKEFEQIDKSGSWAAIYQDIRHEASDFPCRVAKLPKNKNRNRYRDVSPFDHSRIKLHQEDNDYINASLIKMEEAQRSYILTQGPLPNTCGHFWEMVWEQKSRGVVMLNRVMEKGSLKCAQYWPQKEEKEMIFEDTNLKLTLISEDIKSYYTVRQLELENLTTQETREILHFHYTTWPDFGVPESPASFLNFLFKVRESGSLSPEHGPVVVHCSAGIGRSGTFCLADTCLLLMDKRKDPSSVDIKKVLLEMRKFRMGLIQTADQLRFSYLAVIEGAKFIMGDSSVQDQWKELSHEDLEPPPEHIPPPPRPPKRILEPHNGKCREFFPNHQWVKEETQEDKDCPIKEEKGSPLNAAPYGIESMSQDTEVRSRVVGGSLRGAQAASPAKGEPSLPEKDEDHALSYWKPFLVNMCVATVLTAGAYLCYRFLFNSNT

U87MG PTEN wt = assay type: cell-based
PTEN [5] = target: T1, PTEN; experiment: PTEN Inhibition Assay: General Screening; assay type: biochemical; conditions: read-out: % Inhibition @ 250 uM
RAC1-GTP = assay type: cell-based, mouse
MEF PTEN null = experiment: Migration Assay, MEF PTEN null; assay type: cell-based, mouse
MEF PTEN wt = experiment: Migration Assay, MEF PTEN wt; assay type: cell-based, mouse
[6] = test system: HBEC (Human Brain Endothelial Cells); experiment: Wound Healing Assay; assay type: cell-based
U87MG PTEN null = assay type: cell-based
mouse aortic ring = experiment: In Vitro Aortic Ring Angiogenesis Assay; assay type: cell-based; conditions: 120 h
GST-PTEN fusion protein = GST-PTEN fusion protein (Homo sapiens, UniProt P60484); experiment: Immobilized PTEN; assay type: biochemical; conditions: PLV substrate
Chain of GST-PTEN fusion protein (P60484 whole entry, the tested form may be a part): as the sequence (P60484 whole entry, species assumed) above
Procedure: In the PTEN inhibition assay, to exclude the possibility that PTEN inhibitor candidates interact with the unilameller PIP3 lipid vesicle (PLV) to block PTEN and artificially mimic PTEN inhibition, PTEN was bound to a solid support and treated with inhibitor, the inhibitor washed away and then the capability of the bound PTEN to dephosphorylate PLV was determined. […] The gel was centrifuged, washed 3 times and centrifuged again. […] Then a 100 ul portion of malachite green buffer (Upstate, Charlottesville, Va.) was added to develop the color in the dark at room temperature. […] Optical density measurements were converted to nanomoles of phosphate detected using a phosphate-malachite green standard calibration curve.

[7] = MTT, serum-free, 2 hours with compound

SMILES: CC(C)(C)C(=O)Nc1ccc2c(c1)C(=O)C(=O)c1ccccc1-2 [SF1670-000, N-(9,10-Dioxo-9,10-dihydro-phenanthren-2-yl)-2,2-dimethyl-propionamide]
- IC50 ([1]; 2 h): 5 µM
- IC50 (PTEN [2]): 2 µM
- IC50 ([3]; NCI-H1299, 2 h): 10 µM
- IC50 ([4]; 2 h): 44 µM
- IC50 (PTP1B): 17 µM
- concentration of maximal induction of migration (U87MG PTEN wt): 30 nM
- inhibition at 250 µM (PTEN [5]): 100%
- integrin induced activation of RAC to its GTP bound state (RAC1-GTP): augmented integrin induced activation of RAC
- migration number, Average (MEF PTEN null): 47.20 and 49.30 and 49.90 and 47.60 and 45.90
- migration number, Average (MEF PTEN wt): 16.00 and 22.60 and 31.20 and 28.70 and 26.80
- HBEC migration across the wound, in words [6]: migrate faster
- migration number, Average (U87MG PTEN null): 60.90 and 57.20
- activity at 5 µM (mouse aortic ring; read-out: Branch (% of control)): 126 to 166%
- activity at 5 µM (mouse aortic ring; read-out: Stem (% of control)): 107 to 196%

SMILES: O=C1C(=O)c2cccnc2-c2ncccc21 [SF1720-000, 1,10-phenanthroline-5,6-dione]
- IC50 [1, 7]: 1 µM
- IC50 (PTEN [2]; Table 1, read-out: PTEN Inhibition IC50): 5 µM
- IC50 (PTEN [2]; Table 25, read-out: PTEN IC50): 5 µM
- IC50 (PTEN [2]; Table 29, read-out: PTEN IC50): 5 µM
- selective inhibition for PTEN over PTP1B (PTEN [2]; ratio of IC50's): more than 50 fold
- IC50 ([3]; NCI-H1299, MTT, serum-free, 2 hours with compound): < 1 µM
- IC50 [4, 7]: 7 µM
- IC50 (PTP1B; Table 29, read-out: PTP1B IC50): > 250 µM
- inorganic phosphate detected, oriPTEN + 1720, Average (GST-PTEN fusion protein; PTEN in solution): 0.1028 nmol
- inorganic phosphate detected, oriPTEN + 1720 (GST-PTEN fusion protein; PTEN in solution, single determinations): 0.0995 nmol and 0.106 nmol
- inorganic phosphate detected, PTEN gel/1720 bound, Average (GST-PTEN fusion protein; immobilized PTEN pretreated 1 hour, washed): 0.1142 nmol
- inorganic phosphate detected, PTEN gel/1720 bound (GST-PTEN fusion protein; immobilized PTEN pretreated 1 hour, washed, single determinations): 0.1191 nmol and 0.1093 nmol
- migration number, Average (MEF PTEN null; 125 uM, Table 4): 36.50
- migration number, Average (MEF PTEN null; 250 uM, Table 4): 37.30
- migration number, Average (MEF PTEN wt; 125 uM, Table 4): 18.20
- migration number, Average (MEF PTEN wt; 250 uM, Table 4): 11.90
- distance the cells have grown out ([6]; 10 nM, 2 hrs): 0.03* millimeters
- distance the cells have grown out ([6]; 10 nM, 4 hrs): 0.04667 millimeters
- distance the cells have grown out ([6]; 10 nM, 6 hrs): 0.08* millimeters
- distance the cells have grown out ([6]; 10 nM, 24 hrs): 0.155* millimeters
- distance the cells have grown out ([6]; 50 nM, 2 hrs): 0.03667 millimeters
- distance the cells have grown out ([6]; 50 nM, 4 hrs): 0.04667 millimeters
- distance the cells have grown out ([6]; 50 nM, 6 hrs): 0.05667* millimeters
- distance the cells have grown out ([6]; 50 nM, 24 hrs): 0.1583* millimeters
- distance the wound edge had moved forward ([6]; 0.111 uM, 2 hrs): 0.04333 mm
- distance the wound edge had moved forward ([6]; 0.111 uM, 4 hrs): 0.05667 mm
- distance the wound edge had moved forward ([6]; 0.111 uM, 6 hrs): 0.06833 mm
- distance the cells have grown out ([6]; 250 nM, 2 hrs): 0.025 millimeters
- distance the cells have grown out ([6]; 250 nM, 4 hrs): 0.03667 millimeters
- distance the cells have grown out ([6]; 250 nM, 6 hrs): 0.05167* millimeters
- distance the cells have grown out ([6]; 250 nM, 24 hrs): 0.1117* millimeters
- distance the wound edge had moved forward ([6]; 0.333 uM, 2 hrs): 0.05 mm
- distance the wound edge had moved forward ([6]; 0.333 uM, 4 hrs): 0.085 mm
- distance the wound edge had moved forward ([6]; 0.333 uM, 6 hrs): 0.1333 mm
- HBEC migration across the wound, in words ([6]; relative to no treatment control): migrate faster
